Assays:
Type in all cases: functional
Helicoverpa armigera [1] = experiment: Resistance factor, ratio of LD50 for fourth-instar larval stage of Helicoverpa armigera field strain Gaschiga isolated from tomato plant to LD50 for fourth-instar larval stage of pyrethroid-susceptible Helicoverpa armigera laboratory strain BK-77
Helicoverpa armigera [2] = experiment: Resistance factor, ratio of LD50 for fourth-instar larval stage of Helicoverpa armigera field strain Ngong to LD50 for fourth-instar larval stage of pyrethroid-susceptible Helicoverpa armigera laboratory strain BK-77
Helicoverpa armigera [3] = experiment: Insecticidal activity against fourth-instar larval stage of Helicoverpa armigera field strain Pitoa isolated from tomato plant assessed as mortality applied topically onto thorax measured after 48 hr
Helicoverpa armigera [4] = experiment: Insecticidal activity against fourth-instar larval stage of Helicoverpa armigera field strain Pitoa isolated from maize plant assessed as mortality applied topically onto thorax measured after 48 hr
Helicoverpa armigera [5] = experiment: Insecticidal activity against fourth-instar larval stage of Helicoverpa armigera field strain Tchollire isolated from cotton plant assessed as mortality applied topically onto thorax measured after 48 hr
Helicoverpa armigera [6] = experiment: Insecticidal activity against fourth-instar larval stage of pyrethroid-resistance Helicoverpa armigera laboratory strain GS-RR06 assessed as mortality applied topically onto thorax measured after 48 hr
Helicoverpa armigera [7] = experiment: Insecticidal activity against fourth-instar larval stage of pyrethroid-susceptible Helicoverpa armigera laboratory strain BK-77 assessed as mortality applied topically onto thorax measured after 48 hr
Helicoverpa armigera [8] = experiment: Resistance factor, ratio of LD50 for fourth-instar larval stage of Helicoverpa armigera field strain Pitoa isolated from tomato plant to LD50 for fourth-instar larval stage of pyrethroid-susceptible Helicoverpa armigera laboratory strain BK-77
Helicoverpa armigera [9] = experiment: Resistance factor, ratio of LD50 for fourth-instar larval stage of Helicoverpa armigera field strain Tchollire to LD50 for fourth-instar larval stage of pyrethroid-susceptible Helicoverpa armigera laboratory strain BK-77
Helicoverpa armigera [10] = experiment: Resistance factor, ratio of LD50 for fourth-instar larval stage of Helicoverpa armigera field strain Pitoa isolated from maize plant to LD50 for fourth-instar larval stage of pyrethroid-susceptible Helicoverpa armigera laboratory strain BK-77
Helicoverpa armigera [11] = experiment: Resistance factor, ratio of LD50 for fourth-instar larval stage of pyrethroid-resistance Helicoverpa armigera laboratory strain GS-RR06 to LD50 for fourth-instar larval stage of pyrethroid-susceptible Helicoverpa armigera laboratory strain BK-77
Helicoverpa armigera [12] = experiment: Insecticidal activity against fourth-instar larval stage of Helicoverpa armigera field strain Gaschiga isolated from tomato plant assessed as mortality applied topically onto thorax measured after 48 hr
Helicoverpa armigera [13] = experiment: Insecticidal activity against fourth-instar larval stage of Helicoverpa armigera field strain Ngong isolated from cotton plant assessed as mortality applied topically onto thorax measured after 48 hr

Row | Compound | Ratio (Helicoverpa armigera [1]) | Ratio (Helicoverpa armigera [2]) | LD50 (Helicoverpa armigera [3]) [microgAi/g] | LD50 (Helicoverpa armigera [4]) [microgAi/g] | LD50 (Helicoverpa armigera [5]) [microgAi/g] | LD50 (Helicoverpa armigera [6]) [microgAi/g] | LD50 (Helicoverpa armigera [7]) [microgAi/g] | Ratio (Helicoverpa armigera [8]) | Ratio (Helicoverpa armigera [9]) | Ratio (Helicoverpa armigera [10]) | Ratio (Helicoverpa armigera [11]) | LD50 (Helicoverpa armigera [12]) [microgAi/g] | LD50 (Helicoverpa armigera [13]) [microgAi/g]
1 | Clc1ccc(C(c2ccc(Cl)cc2)C(Cl)(Cl)Cl)cc1 [CHLOROPHENOTHANE] | 1.4 | 1.4 | 34.8 | 48.9 | 26.7 | 26.1 | 24.3 | 1.3 | 1 | 1.9 | 1 | 37.4 | 36.8
2 | O=S1OCC2C(CO1)C1(Cl)C(Cl)=C(Cl)C2(Cl)C1(Cl)Cl (configuration not stated) [ENDOSULFAN] | 0.7 | 0.1 | 36.2 | 37.9 |  | 27.5 | 37.6 | 1 |  | 1 | 0.7 | 25.9 | 34
3 | CC1(C)[C@H](C(=O)O[C@H](C#N)c2cccc(Oc3ccccc3)c2)[C@@H]1C=C(Br)Br [DELTAMETHRIN] | 316 | 134 | 37.8 | 29.5 | 3 | 148.6 | 0.05 | 756 | 60 | 590 | 2972 | 15.8 | 6.7

From ChEMBL document CHEMBL3046004, “Esterase-mediated resistance to pyrethroids in field populations of Helicoverpa armigera (Lepidoptera: Noctuidae) from Central Africa” (2009)
